According to US11549123B2, “Plant EPSP synthases and methods of use” (PIONEER HI-BRED INTERNATIONAL, INC., priority 2015, dated 2023):
Changes are numbered by the printed parent chain.

Key:
[1] = biological target: T1, Zea mays EPSPS variant L-T at positions 103-107 (Zea mays, UniProt O24566, P106T/T102L); assay: EPSPS substrate saturation kinetics, maize variant 103L 107T; type: biochemical
T1 sequence (O24566 with tags, fused parts or gaps T102L/P106T): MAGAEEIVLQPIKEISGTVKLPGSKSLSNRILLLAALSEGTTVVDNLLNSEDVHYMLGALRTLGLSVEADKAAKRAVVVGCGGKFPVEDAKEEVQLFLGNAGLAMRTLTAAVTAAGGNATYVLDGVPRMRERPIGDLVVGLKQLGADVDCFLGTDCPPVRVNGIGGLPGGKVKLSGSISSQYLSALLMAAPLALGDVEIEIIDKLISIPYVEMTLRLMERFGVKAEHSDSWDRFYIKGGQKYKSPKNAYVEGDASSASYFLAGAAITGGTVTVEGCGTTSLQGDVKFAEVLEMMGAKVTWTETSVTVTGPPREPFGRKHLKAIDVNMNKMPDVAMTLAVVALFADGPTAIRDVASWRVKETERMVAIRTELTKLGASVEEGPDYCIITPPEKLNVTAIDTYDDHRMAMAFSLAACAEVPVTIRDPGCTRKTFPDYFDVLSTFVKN
Method: (§1) EPSPS activity was determined by quantifying the phosphate generated from the EPSPS reaction. Release of inorganic phosphate was coupled to reaction with 2-amino-6-mercapto-7-methylpurine ribonucleoside, catalyzed by purine-nucleoside phosphorylase (M R Webb, Proc. Natl. Acad. Sci. 89:4884-4887, 1992). The absorbance change that occurs was monitored at 360 nm, where the extinction is 11,200 M^−1 cm^−1, with a Spectramax plate reader (Molecular Devices). To determine kinetic parameters, the varied substrate was present at seven concentrations (the eighth being the blank, containing no substrate) ranging from 4 to 400 uM and the unvaried substrate present at saturation. Six microliters of 50-fold concentrated stock solutions of the varied substrate were placed in the wells of the 96-well assay plate and reactions were started with the addition of a mixture containing 25 mM Hepes, pH 7, 100 mM KCl, 0.3 mM 2-amino-6-mercapto-7-methylpurine ribonucleosde, 1 uM (1 unit/ml) purine-nucleoside phosphorylase (Sigma N8264) and 200 uM of the non-varied substrate. Reactions were monitored with a Spectramax plate reader. The Michaelis-Menten kinetics protocol of the Spectramax software was customized for the substrate concentrations used. The software returns values of KM and Vmax using the Lineweaver-Burke transformation of the Michaelis-Menten equation. To determine kcat, Vmax (uM/min) was divided by the enzyme concentration (uM). […] KI was then calculated from the following form of the Michaelis-Menten equation for competitive inhibition: KI=KM[I]/(KM app−KM) KM approximates the dissociation constant of the enzyme-substrate complex while kcat is the rate of conversion of substrate to product when the substrate concentration is saturating. kcat/KM is a widely accepted parameter for catalytic efficiency when substrate concentration is low (˜KM). […] The parameter kcat/KM×KI is used to quantify both catalytic efficiency and insensitivity and thus the overall fitness of the enzyme. […]

[2] = biological target: T2, Zea mays EPSPS variant WT-FS-E (102A 302S 391G 438R) (Zea mays, UniProt O24566, E301S/E390G/G101A/V437R); assay: EPSPS substrate saturation kinetics, WT-FS-E; type: biochemical
T2 sequence (O24566 with tags, fused parts or gaps G101A/E301S/E390G/V437R): T1 sequence (O24566 with tags, fused parts or gaps T102L/P106T) with G102A, L103T, T107P, E302S, E391G, V438R
Method: as §1, with “reader.” for “reader. The Michaelis-Menten kinetics protocol of the Spectramax software was customized for the substrate concentrations used. The software returns values of KM and Vmax using the Lineweaver-Burke transformation of the Michaelis-Menten equation. To determine kcat, Vmax (uM/min) was divided by the enzyme concentration (uM).”
The vector DNA of the library was transformed into the BL21(DE3) Tuner AroA knockout strain and the cells were plated onto M9 medium containing 50 mM glyphosate. A small aliquot of the transformed cells was plated on LB, by which it was determined that 1.1×10^8 colony forming units, or 20% of the theoretical library size, were plated and screened. […]

[3] = biological target: T3, Zea mays EPSPS variant G102A (Zea mays, UniProt O24566, G101A); assay: EPSPS substrate saturation kinetics, G102A
T3 sequence (O24566 with tags, fused parts or gaps G101A): T1 sequence (O24566 with tags, fused parts or gaps T102L/P106T) with G102A, L103T, T107P

[4] = PEP as substrate, glyphosate as inhibitor

| Compound | kcat ([1]; PEP varied) | improvement in KM for PEP ([2]; compared to G102A alone) [fold] | kcat/KM ([3]; PEP) [min^−1uM^−1] | kcat ([3]; PEP varied) [s⁻¹] | Ki [1] [µM] | (kcat/KM)*KI [1, 4] | Ki [2] [µM] | (kcat/KM)*KI [2, 4] | Ki ([3]; KI (glyphosate), competitive with PEP) [µM] | Ki ([3]; Ki, substrate saturation, Zm-G102A) [µM] | (kcat/KM)*KI [3, 4] | (kcat/KM)*KI ([3]; substrate saturation, Zm-G102A) |
| --- | --- | --- | --- | --- | --- | --- | --- | --- | --- | --- | --- | --- |
| C=C(OP(=O)(O)O)C(=O)O [PEP, phosphoenolpyruvate] | 184 | 2 | 2.2 | 11.6 |  |  |  |  |  |  |  |  |
| O=C(O)CNCP(=O)(O)O [glyphosate, N-phosphonomethylglycine] |  |  |  |  | 289 | 1163 | 1150 | 2763 | 2290 | 1340 | 5137 | 2820 |
